The CheMixHub viscosity set
± gives the uncertainty stated by the source.

Experiment: xn = mol fraction of the nth substance listed

COCCOCCO + O
viscosity [mPa·s]
Details | 293.15 K | 303.15 K | 308.15 K | 313.15 K | 323.15 K
101.3 kPa, x1 = 0.0164 | 1.374 ± 0.009 | 1.061 ± 0.007 | – | 0.8527 ± 0.0055 | 0.6962 ± 0.0046
101.3 kPa, x1 = 0.0361 | 1.895 ± 0.011 | 1.421 ± 0.009 | – | 1.108 ± 0.007 | 0.8862 ± 0.0057
101.3 kPa, x1 = 0.0603 | 2.602 ± 0.015 | 1.916 ± 0.011 | – | 1.445 ± 0.009 | 1.131 ± 0.007
101.3 kPa, x1 = 0.0909 | 3.571 ± 0.02 | 2.525 ± 0.014 | – | 1.858 ± 0.011 | 1.441 ± 0.009
101.3 kPa, x1 = 0.1298 | 4.594 ± 0.025 | 3.232 ± 0.018 | – | 2.367 ± 0.014 | 1.782 ± 0.01
101.3 kPa, x1 = 0.1836 | 5.705 ± 0.03 | 3.941 ± 0.022 | – | 2.848 ± 0.016 | 2.114 ± 0.012
101.3 kPa, x1 = 0.2589 | 6.431 ± 0.033 | 4.445 ± 0.024 | – | 3.193 ± 0.018 | 2.366 ± 0.014
101.3 kPa, x1 = 0.3739 | 6.442 ± 0.033 | 4.514 ± 0.025 | – | 3.269 ± 0.018 | 2.451 ± 0.014
101.3 kPa, x1 = 0.4594 | 6.083 ± 0.032 | 4.337 ± 0.024 | – | 3.174 ± 0.018 | 2.412 ± 0.014
101.3 kPa, x1 = 0.5736 | 5.544 ± 0.029 | 4.024 ± 0.022 | – | 2.994 ± 0.017 | 2.296 ± 0.013
101.3 kPa, x1 = 0.6641 | 5.108 ± 0.028 | 3.753 ± 0.021 | – | 2.849 ± 0.016 | 2.204 ± 0.013
101.3 kPa, x1 = 0.7397 | 4.791 ± 0.026 | 3.554 ± 0.02 | – | 2.724 ± 0.015 | 2.122 ± 0.012
101.3 kPa, x1 = 0.8287 | 4.441 ± 0.024 | 3.341 ± 0.019 | – | 2.594 ± 0.015 | 2.031 ± 0.012
101.3 kPa, x1 = 0.8794 | 4.286 ± 0.024 | 3.239 ± 0.018 | – | 2.511 ± 0.014 | 1.987 ± 0.011
101.3 kPa, x1 = 0.9331 | 4.149 ± 0.023 | 3.143 ± 0.018 | – | 2.455 ± 0.014 | 1.955 ± 0.011
101.33 kPa, x1 = 0.013 | – | – | 0.914 ± 0.008 | – | –
101.33 kPa, x1 = 0.0426 | – | – | 1.445 ± 0.011 | – | –
101.33 kPa, x1 = 0.058 | – | – | 1.73 ± 0.013 | – | –
101.33 kPa, x1 = 0.0793 | – | – | 2.131 ± 0.017 | – | –
101.33 kPa, x1 = 0.0999 | – | – | 2.476 ± 0.02 | – | –
101.33 kPa, x1 = 0.1286 | – | – | 2.872 ± 0.023 | – | –
101.33 kPa, x1 = 0.1865 | – | – | 3.333 ± 0.028 | – | –
101.33 kPa, x1 = 0.3088 | – | – | 3.876 ± 0.035 | – | –
101.33 kPa, x1 = 0.4518 | – | – | 3.836 ± 0.037 | – | –
101.33 kPa, x1 = 0.5434 | – | – | 3.625 ± 0.036 | – | –
101.33 kPa, x1 = 0.6518 | – | – | 3.448 ± 0.036 | – | –
101.33 kPa, x1 = 0.7694 | – | – | 3.235 ± 0.036 | – | –
101.33 kPa, x1 = 0.9087 | – | – | 2.996 ± 0.036 | – | –
101.33 kPa, x2 = 0.0109 | – | – | 2.874 ± 0.035 | – | –
